Values after ≈ are worked out from the molar mass of the structure shown.
Key:
Test in all cases: Broth microdilution MIC in iron-depleted CAMHB (IDM)
Format in all cases: cell-based
[1] = tested on: A. baumannii ATCC 17978; settings: Acinetobacter baumannii, ATCC17978, read-out: Minimum Inhibitory Concentration, ATCC 17978
Method in brief: (§1)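 Colonies grow 3-5 h in iron-depleted broth at 37° C, are adjusted by OD600 to give 2-8×10^5 CFU/mL, and are added to 2-fold serial compound dilutions. After 16-20 h (Pseudomonas) or 20-24 h (Acinetobacter) at 37° C, the lowest concentration with no visible growth is the MIC.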

[2] = tested on: A. baumannii ATCC 19606; settings: Acinetobacter baumannii, ATCC19606, read-out: Minimum Inhibitory Concentration, ATCC 19606
Method in brief: as §1

[3] = tested on: A. baumannii CDC-0033 producing NDM-1, and OXA-94; settings: Acinetobacter baumannii, read-out: Minimum Inhibitory Concentration, CDC-0033
Method in brief: as §1

[4] = tested on: A. baumannii CDC-0036 OXA-65, and OXA-24; settings: Acinetobacter baumannii, read-out: Minimum Inhibitory Concentration, CDC-0036
Method in brief: as §1

[5] = tested on: A. baumannii CDC-0083 producing NDM-1, PER-7, OXA-23, and OXA-69; settings: Acinetobacter baumannii, read-out: Minimum Inhibitory Concentration, CDC-0083
Method in brief: as §1

[6] = tested on: P. aeruginosa (ΔmexAB-oprM); settings: Pseudomonas aeruginosa, read-out: Minimum Inhibitory Concentration, P. aeruginosa ΔmexAB-OprM
Method in brief: as §1

[7] = tested on: P. aeruginosa ATCC 27853; settings: Pseudomonas aeruginosa, ATCC27853, read-out: Minimum Inhibitory Concentration, P. aeruginosa ATCC 27853
Method in brief: as §1

[8] = tested on: P. aeruginosa ATCC 35151; settings: Pseudomonas aeruginosa, ATCC35151; iron-depleted MHB (IDM); hyper-permeable strain; read-out: Minimum Inhibitory Concentration, P. aeruginosa ATCC 35151
Method in brief: as §1

[9] = tested on: P. aeruginosa CDC-0054 producing VIM-4, OXA-50, and PAO; settings: Pseudomonas aeruginosa, read-out: Minimum Inhibitory Concentration, P. aeruginosa CDC-0054
Method in brief: as §1

[10] = tested on: P. aeruginosa CDC-0090 producing KPC-5, OXA-50, and PAO; settings: Pseudomonas aeruginosa, read-out: Minimum Inhibitory Concentration, P. aeruginosa CDC-0090
Method in brief: as §1

[11] = tested on: P. aeruginosa CDC-0095 producing OXA-50, and PAO; settings: Pseudomonas aeruginosa, read-out: Minimum Inhibitory Concentration, P. aeruginosa CDC-0095
Method in brief: as §1

Row | SMILES | MIC [1] [µg/mL] | MIC [2] [µg/mL] | MIC [3] [µg/mL] | MIC [4] [µg/mL] | MIC [5] [µg/mL] | MIC [6] [µg/mL] | MIC [7] [µg/mL] | MIC [8] [µg/mL] | MIC [9] [µg/mL] | MIC [10] [µg/mL] | MIC [11] [µg/mL]
1 | CS(=O)(=O)N1CCN(C(=O)N[C@@H](C(=O)N[C@H]2Cc3ccc(F)c(C(=O)O)c3OB2O)c2cc(F)c(O)c(O)c2Cl)C1=O (single isomer, unassigned) [Example 189] | 0.25 (≈ 0.395 µM) | 0.5 to 1 (≈ 0.79 to 1.58 µM) | 2 to 4 (≈ 3.16 to 6.32 µM) | 2 to 4 (≈ 3.16 to 6.32 µM) | 32 to 64 (≈ 50.6 to 101 µM) | 0.25 (≈ 0.395 µM) | 0.5 to 1 (≈ 0.79 to 1.58 µM) | 0.25 (≈ 0.395 µM) | 0.5 to 1 (≈ 0.79 to 1.58 µM) | 0.5 to 1 (≈ 0.79 to 1.58 µM) | 2 to 4 (≈ 3.16 to 6.32 µM)
2 | CCN1CCN(C(=O)N[C@@H](C(=O)N[C@H]2Cc3ccc(F)c(C(=O)O)c3OB2O)c2c(Cl)cc(O)c(O)c2F)C(=O)C1=O (single isomer, unassigned) [Example 207] | 0.5 to 1 (≈ 0.819 to 1.64 µM) | 0.5 to 1 (≈ 0.819 to 1.64 µM) | 32 to 64 (≈ 52.4 to 105 µM) | 2 to 4 (≈ 3.27 to 6.55 µM) | > 128 | 2 to 4 (≈ 3.27 to 6.55 µM) | 2 to 4 (≈ 3.27 to 6.55 µM) | 0.25 (≈ 0.409 µM) | 2 to 4 (≈ 3.27 to 6.55 µM) | 2 to 4 (≈ 3.27 to 6.55 µM) | 8 to 16 (≈ 13.1 to 26.2 µM)
3 | O=C(NCCCN1CCN(C(=O)NC(C(=O)N[C@H]2Cc3cccc(C(=O)O)c3OB2O)c2ncc(O)cc2F)C(=O)C1=O)c1ccc(O)c(O)c1Cl (stereo partly drawn) [Example 1, (3R)-3-(2-(4-(3-(2-chloro-3,4-dihydroxybenzamido)propyl)-2,3-dioxopiperazine-1-carboxamido)-2-(3-fluoro-5-hydroxypyridin-2-yl)acetamido)-2-hydroxy-3,4-dihydro-2H-benzo[e][1,2]oxaborinine-8-carboxylic acid] | – | 2 to 4 (≈ 2.69 to 5.38 µM) | – | – | – | 2 to 4 (≈ 2.69 to 5.38 µM) | 8 to 16 (≈ 10.8 to 21.5 µM) | 0.5 to 1 (≈ 0.673 to 1.35 µM) | – | – | –
4 | C[C@H]1CN(CCNC(=O)c2ccc(O)c(O)c2Cl)C(=O)C(=O)N1C(=O)NC(C(=O)N[C@H]1Cc2cccc(C(=O)O)c2OB1O)c1ncc(O)cc1F (stereo partly drawn) [Example 2, (3R)-3-(2-((S)-4-(2-(2-chloro-3,4-dihydroxybenzamido)ethyl)-6-methyl-2,3-dioxopiperazine-1-carboxamido)-2-(3-fluoro-5-hydroxypyridin-2-yl)acetamido)-2-hydroxy-3,4-dihydro-2H-benzo[e][1,2]oxaborinine-8-carboxylic acid] | 0.5 to 1 (≈ 0.673 to 1.35 µM) | 0.5 to 1 (≈ 0.673 to 1.35 µM) | 8 to 16 (≈ 10.8 to 21.5 µM) | 32 to 64 (≈ 43.1 to 86.2 µM) | 8 to 16 (≈ 10.8 to 21.5 µM) | 0.25 (≈ 0.337 µM) | 2 to 4 (≈ 2.69 to 5.38 µM) | 0.25 (≈ 0.337 µM) | 2 to 4 (≈ 2.69 to 5.38 µM) | 2 to 4 (≈ 2.69 to 5.38 µM) | 8 to 16 (≈ 10.8 to 21.5 µM)
5 | O=C(NCCCN1CCN(C(=O)NC(C(=O)N[C@H]2Cc3ccc(F)c(C(=O)O)c3OB2O)c2ncc(O)cc2F)C(=O)C1=O)c1ccc(O)c(O)c1Cl (stereo partly drawn) [Example 3, (3R)-3-(2-(4-(3-(2-chloro-3,4-dihydroxybenzamido)propyl)-2,3-dioxopiperazine-1-carboxamido)-2-(3-fluoro-5-hydroxypyridin-2-yl)acetamido)-7-fluoro-2-hydroxy-3,4-dihydro-2H-benzo[e][1,2]oxaborinine-8-carboxylic acid] | 8 to 16 (≈ 10.5 to 21 µM) | 32 to 64 (≈ 42.1 to 84.1 µM) | 32 to 64 (≈ 42.1 to 84.1 µM) | 32 to 64 (≈ 42.1 to 84.1 µM) | 32 to 64 (≈ 42.1 to 84.1 µM) | 0.5 to 1 (≈ 0.657 to 1.31 µM) | 2 to 4 (≈ 2.63 to 5.26 µM) | 0.25 (≈ 0.329 µM) | 2 to 4 (≈ 2.63 to 5.26 µM) | 8 to 16 (≈ 10.5 to 21 µM) | 8 to 16 (≈ 10.5 to 21 µM)
6 | Nc1nc(C(NC(=O)N2CCN(CCNC(=O)c3ccc(O)c(O)c3Cl)C(=O)C2=O)C(=O)N[C@H]2Cc3ccc(F)c(C(=O)O)c3OB2O)c(F)s1 (stereo partly drawn) [Example 4, (3R)-3-(2-(2-amino-5-fluorothiazol-4-yl)-2-(4-(2-(2-chloro-3,4-dihydroxybenzamido)ethyl)-2,3-dioxopiperazine-1-carboxamido)acetamido)-7-fluoro-2-hydroxy-3,4-dihydro-2H-benzo[e][1,2]oxaborinine-8-carboxylic acid] | 0.25 (≈ 0.333 µM) | 0.5 to 1 (≈ 0.665 to 1.33 µM) | 32 to 64 (≈ 42.6 to 85.1 µM) | 32 to 64 (≈ 42.6 to 85.1 µM) | 32 to 64 (≈ 42.6 to 85.1 µM) | 0.25 (≈ 0.333 µM) | 0.25 (≈ 0.333 µM) | 0.25 (≈ 0.333 µM) | 0.5 to 1 (≈ 0.665 to 1.33 µM) | 0.25 (≈ 0.333 µM) | 0.5 to 1 (≈ 0.665 to 1.33 µM)
7 | O=C(NCCN1CCN(C(=O)NC(C(=O)N[C@H]2Cc3ccc(F)c(C(=O)O)c3OB2O)c2ncc(O)cc2F)C(=O)C1=O)c1c(F)cc(O)c(O)c1Cl (stereo partly drawn) [Example 5, (3R)-3-(2-(4-(2-(2-chloro-6-fluoro-3,4-dihydroxybenzamido)ethyl)-2,3-dioxopiperazine-1-carboxamido)-2-(3-fluoro-5-hydroxypyridin-2-yl)acetamido)-7-fluoro-2-hydroxy-3,4-dihydro-2H-benzo[e][1,2]oxaborinine-8-carboxylic acid] | 0.25 (≈ 0.327 µM) | 0.5 to 1 (≈ 0.654 to 1.31 µM) | 2 to 4 (≈ 2.61 to 5.23 µM) | 32 to 64 (≈ 41.8 to 83.7 µM) | 32 to 64 (≈ 41.8 to 83.7 µM) | 0.25 (≈ 0.327 µM) | 0.25 (≈ 0.327 µM) | 0.25 (≈ 0.327 µM) | 0.25 (≈ 0.327 µM) | 0.25 (≈ 0.327 µM) | 0.5 to 1 (≈ 0.654 to 1.31 µM)
8 | Nc1nc(/C(=N/OC[C@H](NC(=O)c2ccc(O)c(O)c2Cl)C(=O)O)C(=O)N[C@H]2Cc3cccc(C(=O)O)c3OB2O)cs1 [Example 6, (R)-3-((Z)-2-(2-aminothiazol-4-yl)-2-(((S)-2-carboxy-2-(2-chloro-3,4-dihydroxybenzamido)ethoxy)imino)acetamido)-2-hydroxy-3,4-dihydro-2H-benzo[e][1,2]oxaborinine-8-carboxylic acid] | 8 to 16 (≈ 12.6 to 25.2 µM) | 32 to 64 (≈ 50.5 to 101 µM) | 32 to 64 (≈ 50.5 to 101 µM) | 32 to 64 (≈ 50.5 to 101 µM) | 32 to 64 (≈ 50.5 to 101 µM) | 0.5 to 1 (≈ 0.789 to 1.58 µM) | 0.5 to 1 (≈ 0.789 to 1.58 µM) | 0.25 (≈ 0.394 µM) | 0.5 to 1 (≈ 0.789 to 1.58 µM) | 0.5 to 1 (≈ 0.789 to 1.58 µM) | 2 to 4 (≈ 3.16 to 6.31 µM)
9 | NCCCN1CCN(C(=O)N[C@@H](C(=O)N[C@H]2Cc3cc(Cl)c(F)c(C(=O)O)c3OB2O)c2c(F)cc(O)c(O)c2Cl)C(=O)C1=O [Example 190, (R)-3-((R)-2-(4-(3-aminopropyl)-2,3-dioxopiperazine-1-carboxamido)-2-(2-chloro-6-fluoro-3,4-dihydroxyphenyl)acetamido)-6-chloro-7-fluoro-2-hydroxy-3,4-dihydro-2H-benzo[e][1,2]oxaborinine-8-carboxylic acid] | 8 to 16 (≈ 11.9 to 23.7 µM) | > 128 | > 128 | > 128 | > 128 | 0.25 (≈ 0.371 µM) | 2 to 4 (≈ 2.97 to 5.93 µM) | 0.5 to 1 (≈ 0.742 to 1.48 µM) | 8 to 16 (≈ 11.9 to 23.7 µM) | 0.5 to 1 (≈ 0.742 to 1.48 µM) | 8 to 16 (≈ 11.9 to 23.7 µM)
10 | CCN1CCN(C(=O)N[C@@H](C(=O)N[C@H]2Cc3cc(Cl)c(F)c(C(=O)O)c3OB2O)c2c(F)cc(O)c(O)c2Cl)C(=O)C1=O [Example 191, (R)-6-chloro-3-((R)-2-(2-chloro-6-fluoro-3,4-dihydroxyphenyl)-2-(4-ethyl-2,3-dioxopiperazine-1-carboxamido)acetamido)-7-fluoro-2-hydroxy-3,4-dihydro-2H-benzo[e][1,2]oxaborinine-8-carboxylic acid] | 2 to 4 (≈ 3.1 to 6.2 µM) | 8 to 16 (≈ 12.4 to 24.8 µM) | > 128 | 32 to 64 (≈ 49.6 to 99.2 µM) | > 128 | 0.25 (≈ 0.387 µM) | 2 to 4 (≈ 3.1 to 6.2 µM) | 0.25 (≈ 0.387 µM) | 2 to 4 (≈ 3.1 to 6.2 µM) | 8 to 16 (≈ 12.4 to 24.8 µM) | 8 to 16 (≈ 12.4 to 24.8 µM)
11 | CS(=O)(=O)N1CCN(C(=O)NC(C(=O)N[C@H]2Cc3ccc(F)c(C(=O)O)c3OB2O)c2c(Cl)cc(O)c(O)c2F)C1=O (stereo partly drawn) [Example 208, (3R)-3-(2-(6-chloro-2-fluoro-3,4-dihydroxyphenyl)-2-(3-(methylsulfonyl)-2-oxoimidazolidine-1-carboxamido)acetamido)-7-fluoro-2-hydroxy-3,4-dihydro-2H-benzo[e][1,2]oxaborinine-8-carboxylic acid] | 0.5 to 1 (≈ 0.79 to 1.58 µM) | 2 to 4 (≈ 3.16 to 6.32 µM) | 32 to 64 (≈ 50.6 to 101 µM) | 8 to 16 (≈ 12.6 to 25.3 µM) | > 128 | 2 to 4 (≈ 3.16 to 6.32 µM) | 2 to 4 (≈ 3.16 to 6.32 µM) | 0.25 (≈ 0.395 µM) | 32 to 64 (≈ 50.6 to 101 µM) | 2 to 4 (≈ 3.16 to 6.32 µM) | 32 to 64 (≈ 50.6 to 101 µM)
12 | NCCN1CCN(C(=O)N[C@@H](C(=O)N[C@H]2Cc3ccc(F)c(C(=O)O)c3OB2O)c2c(F)c(F)c(O)c(O)c2Cl)C(=O)C1=O [Example 226, (R)-3-((R)-2-(4-(2-aminoethyl)-2,3-dioxopiperazine-1-carboxamido)-2-(2-chloro-5,6-difluoro-3,4-dihydroxyphenyl)acetamido)-7-fluoro-2-hydroxy-3,4-dihydro-2H-benzo[e][1,2]oxaborinine-8-carboxylic acid] | 0.5 to 1 (≈ 0.777 to 1.55 µM) | 0.5 to 1 (≈ 0.777 to 1.55 µM) | 8 to 16 (≈ 12.4 to 24.9 µM) | 8 to 16 (≈ 12.4 to 24.9 µM) | 2 to 4 (≈ 3.11 to 6.21 µM) | 2 to 4 (≈ 3.11 to 6.21 µM) | 0.5 to 1 (≈ 0.777 to 1.55 µM) | 0.25 (≈ 0.388 µM) | 2 to 4 (≈ 3.11 to 6.21 µM) | – | 2 to 4 (≈ 3.11 to 6.21 µM)
